Patent publication US7704971B2, “Uracil reductase inactivators” (SmithKlineBeecham Corporation, priority 1990, dated 2010)

Experiments:
[1] = target: T1, uracil reductase (Rattus norvegicus, UniProt O89000); assay: Inactivation of uracil reductase in vivo (plasma uracil and thymine), rats
T1 construct: from tissue; host or cells: whole animal (rat), endogenous enzyme
T1 sequence (O89000 1-1025): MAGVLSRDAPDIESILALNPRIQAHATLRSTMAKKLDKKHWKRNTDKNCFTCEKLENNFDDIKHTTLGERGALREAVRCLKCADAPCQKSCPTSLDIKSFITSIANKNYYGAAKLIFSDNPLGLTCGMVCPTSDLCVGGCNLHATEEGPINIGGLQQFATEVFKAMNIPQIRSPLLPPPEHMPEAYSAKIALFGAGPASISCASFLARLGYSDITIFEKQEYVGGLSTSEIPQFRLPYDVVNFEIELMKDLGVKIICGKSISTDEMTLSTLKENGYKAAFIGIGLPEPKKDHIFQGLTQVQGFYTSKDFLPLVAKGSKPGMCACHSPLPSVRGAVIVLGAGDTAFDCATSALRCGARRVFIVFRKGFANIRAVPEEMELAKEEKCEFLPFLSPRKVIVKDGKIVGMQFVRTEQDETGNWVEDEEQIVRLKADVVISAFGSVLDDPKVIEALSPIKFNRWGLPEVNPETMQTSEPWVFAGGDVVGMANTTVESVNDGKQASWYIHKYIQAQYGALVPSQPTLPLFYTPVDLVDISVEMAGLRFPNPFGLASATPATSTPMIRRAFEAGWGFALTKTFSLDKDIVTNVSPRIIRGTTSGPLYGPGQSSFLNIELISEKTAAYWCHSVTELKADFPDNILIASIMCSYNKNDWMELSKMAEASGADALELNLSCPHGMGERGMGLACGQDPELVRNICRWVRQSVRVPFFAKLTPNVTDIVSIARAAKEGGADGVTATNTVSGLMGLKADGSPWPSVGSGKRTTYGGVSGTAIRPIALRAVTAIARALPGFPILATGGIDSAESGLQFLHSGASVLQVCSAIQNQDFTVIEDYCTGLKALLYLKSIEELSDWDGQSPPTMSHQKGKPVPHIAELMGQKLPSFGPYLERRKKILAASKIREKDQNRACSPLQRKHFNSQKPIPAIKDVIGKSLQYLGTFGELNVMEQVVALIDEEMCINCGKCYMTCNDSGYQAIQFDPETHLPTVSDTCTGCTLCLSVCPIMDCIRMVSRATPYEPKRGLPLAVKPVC
Procedure: (§1) The maximum effect occurred at about 0.1 mg/kg p.o. in rats, at 0.5 to 1 mg/kg s.c. in mice, and at approximately 1 mg/kg intravenously (i.v.) in dogs and probably represents total inactivation of uracil reductase. These doses elevated mouse, dog, and rat plasma uracil from about 3 uM to about 50-60 uM. […] The ED50 equals 0.01 mg/kg.

[2] = Effect on plasma FU level, mice; format: in vivo; settings: 5-FU p.o. or i.p., EU 2 mg/kg i.p. 90 minutes prior to 5-FU
Procedure: Mice were dosed either orally (p.o.) or interperitoneally (i.p.) with 5-fU. 5-ethynyluracil (EU) at 2mg/kg was dosed i.p. 90 minutes prior to the 5-FU.
In addition, the usual variability in plasma FU in rats orally dosed with FU at 50 mg/kg was eliminated by EU pretreatment.

[3] = system: uracil reductase; assay: Return of plasma uracil to normal after EU (species not specified); format: in vivo; settings: after EU dose of maximum effect
Procedure: as §1

[4] = system: uracil reductase; assay: Inactivation of uracil reductase in vivo (plasma uracil and thymine), monkeys; settings: monkeys dosed with small amounts
Procedure: as §1

[5] = target: T2, Uracil reductase (dihydropyrimidine dehydrogenase, EC 1.3.1.2) (Bos taurus, UniProt Q28007); assay: Determination of uracil reductase inactivation; format: biochemical, bovine
T2 construct: purified from bovine liver; from tissue; host or cells: bovine liver
T2 sequence (Q28007 1-1025): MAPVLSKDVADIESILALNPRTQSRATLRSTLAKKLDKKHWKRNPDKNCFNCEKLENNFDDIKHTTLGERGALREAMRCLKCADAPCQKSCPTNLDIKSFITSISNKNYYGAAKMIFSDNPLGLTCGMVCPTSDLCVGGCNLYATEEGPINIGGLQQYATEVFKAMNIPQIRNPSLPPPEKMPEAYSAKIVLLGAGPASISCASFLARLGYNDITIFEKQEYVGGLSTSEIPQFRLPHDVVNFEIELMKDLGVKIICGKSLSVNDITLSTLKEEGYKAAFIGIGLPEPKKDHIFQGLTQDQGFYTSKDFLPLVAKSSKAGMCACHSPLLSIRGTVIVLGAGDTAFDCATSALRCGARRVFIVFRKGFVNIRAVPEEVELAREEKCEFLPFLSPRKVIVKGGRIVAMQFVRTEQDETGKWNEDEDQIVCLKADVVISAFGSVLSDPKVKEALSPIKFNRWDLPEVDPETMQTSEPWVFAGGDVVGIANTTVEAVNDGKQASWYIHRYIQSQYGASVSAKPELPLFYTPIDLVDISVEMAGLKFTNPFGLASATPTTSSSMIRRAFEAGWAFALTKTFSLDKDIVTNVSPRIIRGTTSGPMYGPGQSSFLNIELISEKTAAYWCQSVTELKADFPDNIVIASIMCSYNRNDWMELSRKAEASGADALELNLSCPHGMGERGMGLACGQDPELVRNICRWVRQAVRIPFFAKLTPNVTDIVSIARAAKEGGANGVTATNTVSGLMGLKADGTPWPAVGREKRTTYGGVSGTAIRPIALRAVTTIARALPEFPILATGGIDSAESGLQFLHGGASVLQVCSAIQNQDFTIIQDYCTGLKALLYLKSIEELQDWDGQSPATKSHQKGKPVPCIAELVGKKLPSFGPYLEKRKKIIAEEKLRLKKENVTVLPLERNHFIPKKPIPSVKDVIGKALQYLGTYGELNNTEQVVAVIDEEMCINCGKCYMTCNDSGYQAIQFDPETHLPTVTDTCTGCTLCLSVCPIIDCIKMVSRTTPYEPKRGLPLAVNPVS
Procedure: Uracil reductase (1 micromolar) (dihydropyrimidine dehydrogenase, EC 1.3.1.2) purified from bovine liver was incubated with 100 micromolar inactivator and 5 mM dithiothreitol (enzyme reductant) at 37° for 30 minutes in 0.05 M Tris-HCl at pH 8.0. The enzyme and inactivator were diluted 100-fold into the assay buffer, which contained 200 micromolar NADPH, 200 micromolar thymine and 1 mM dithiothreitol in Tris-HCl at pH 8.0. The velocity of the enzyme was determined spectrophotometrically. These velocities have been corrected for NADPH oxidase activity, which was less than […] of the rate of thymine-dependent oxidation of NADPH. The % inactivation of the enzyme was equal to 100% minus the percent of enzymatic activity remaining. Enzyme incubated without inhibitor was stable under these conditions. Parenthetical values are the relative first-order rate constants for inactivation of enzyme determined from similar experiments where the fractional activity was measured as a function of the time of incubation of 50 micromol inactivator with enzyme.

- plasma uracil ([1]; rat, at dose of maximum effect, elevated from about 3 uM): 50 to 60 µM
- ED50 ([1]; rat, oral doses, 4 hours after dosing, read-out: ED50 (increased plasma levels of uracil and thymine)): 0.01 mg/kg
- dose at which the maximum effect on plasma uracil and thymine occurred ([1]; rats, p.o.): about 0.1 mg/kg
- plasma levels of 5-fluorouracil [2]: increased
- relative first-order rate constants for inactivation of enzyme (parenthetical values) ([5]; 50 micromol inactivator, fractional activity vs time of incubation): (100)
- inhibition at 100 µM ([5]; 0.5 h, 100 micromolar inactivator, 1 micromolar enzyme, 5 mM dithiothreitol, 37° for 30 minutes, pH 8.0, read-out: % Inactivation): 100%
SMILES: C#Cc1c[nH]c(=O)[nH]c1=O [5-ethynyluracil]
- half-life of plasma uracil decrease to normal [3]: 10 h
- time over which plasma uracil decreased to normal [3]: 24 h
- plasma uracil and thymine levels [4]: greatly elevated
